In US20240199535A1, “DEUTERATED DHODH INHIBITORS” (priority 2021, published 2024):

How the values were obtained:
[1] = system: SARS-CoV-2; experiment: Antiviral activity on SARS-CoV-2, viral replication (YFP) assay; format: cell-based; details: Severe acute respiratory syndrome coronavirus 2, read-out: EC50 range
[2] = in vivo; details: CC7BL/6J, mouse, po, 5 mg/kg
Description: The pharmacokinetics of the compounds of the present invention was evaluated in 3 male and 3 female mice (CC7BL/6J, 8 week old) after oral cassette dosing. Dose was 5 mg/kg, application volume was 5 mL/kg and vehicle was 5% Solutol, 95% NaCl solution (at 0.9% saline concentration). At each designated time point (0, 0.25, 0.5, 1, 2, 4, 8 h after dosing), 20 μL whole blood were collected from the tail vein into Li-heparin tubes, frozen on dry ice within 1-2 minutes of sampling and stored at −20° C. until processed for LC-MS analysis.

[3] = in vitro; details: male, rat, microsomes
[4] = in vitro; details: human, microsomes
[5] = in vivo; details: Han Wistar, rat
Description: Rats are provided with a catheter in the jugular vein (2-3 days prior to blood sampling). At each designated time point (0, 1, 2, 4, 8 and 24 h after dosing), 100 μL blood were collected into Li-heparin tubes, stored on ice until centrifugation (10 minutes at 3000 g, 4° C.) and plasma was prepared within 45 min after collection, frozen at −20° C. and stored at this temperature until processed for LC-MS analysis.

Q: For [2H]C([2H])([2H])Oc1cccc(-c2ccc(NC(=O)C3=C(C(=O)O)CCC3)c3cnccc23)c1 [12/3], which EC50 [1] is on record?
A: 25 to 50 µM

Q: With [2H]C([2H])([2H])Oc1cccc(-c2ccc(NC(=O)C3=C(C(=O)O)CCC3)c3c2CCC3)c1 [Example 12/1] as the compound, how does the EC50 [1] read?
A: < 10 µM

Q: With [2H]C([2H])([2H])Oc1cccc(-c2cc(F)c(NC(=O)C3=C(C(=O)O)CSC3)c(F)c2)c1 [Example 10, 4-((3,5-Difluoro-3′-(methoxy-d3)-[1,1′-biphenyl]-4-yl)carbamoyl)-2,5-dihydro-thiophene-3-carboxylic Acid] as the compound, how does the EC50 [1] read?
A: 10 to 25 µM

Q: Which EC50 [1] does the source give for [2H]C([2H])([2H])Oc1cccc(-c2c(F)c(F)c(NC(=O)C3=C(C(=O)O)CCC3)c(F)c2F)c1 [1/2] here?
A: < 10 µM

Q: With [2H]C([2H])([2H])Oc1cccc(-c2ccc(NC(=O)C3=C(C(=O)O)CCC3)c(F)c2)c1 [Example 1, 2-((3-Fluoro-3′-(methoxy-d3)-[1,1′-biphenyl]-4-yl)carbamoyl)cyclopent-1-ene-1-carboxylic Acid] as the compound, how does the AUC ([2]; female) read?
A: 5740 ng·h/mL

Q: And the Cmax ([2]; female)?
A: 3440 ng/mL

Q: And the half-life ([2]; female)?
A: 96 min

Q: And the AUC ([2]; male)?
A: 5110 ng·h/mL

Q: And the Cmax ([2]; male)?
A: 4110 ng/mL

Q: What about the half-life ([2]; male) of the same compound?
A: 102 min

Q: And the microsomal CLint [3]?
A: 13.4 µL/min/mg

Q: What about the microsomal CLint ([4]; both) of the same compound?
A: 0.96 µL/min/mg

Q: And the microsomal CLint ([4]; female)?
A: 5.02 µL/min/mg

Q: And the microsomal CLint ([4]; male)?
A: 7.69 µL/min/mg

Q: And the “% AUCextra” value ([5]; female, iv, 1 mg/kg)?
A: 13%

Q: What about the AUC(0-inf) ([5]; female, iv, 1 mg/kg) of the same compound?
A: 80.7 µg·h/mL

Q: What about the AUC(0-t) ([5]; female, iv, 1 mg/kg) of the same compound?
A: 66.2 µg·h/mL

Q: What about the C0 ([5]; female, iv, 1 mg/kg) of the same compound?
A: 7010 ng/mL

Q: What about the Cz ([5]; female, iv, 1 mg/kg) of the same compound?
A: 943 ng/mL

Q: What about the Vz/f ([5]; female, iv, 1 mg/kg) of the same compound?
A: 17 mL/kg

Q: What about the t1/2z ([5]; female, iv, 1 mg/kg) of the same compound?
A: 9.9 h

Q: And the tz ([5]; female, iv, 1 mg/kg)?
A: 24 h

Q: What about the bioavailability ([5]; female, po) of the same compound?
A: 75.3%

Q: And the “% AUCextra” value ([5]; female, po, 5 mg/kg)?
A: 17%

Q: And the AUC(0-inf) ([5]; female, po, 5 mg/kg)?
A: 291 µg·h/mL

Q: And the AUC(0-t) ([5]; female, po, 5 mg/kg)?
A: 249 µg·h/mL

Q: And the CL/F ([5]; female, po, 5 mg/kg)?
A: 3.77 mL/min/kg

Q: What about the Cmax ([5]; female, po, 5 mg/kg) of the same compound?
A: 19700 ng/mL

Q: And the Cz ([5]; female, po, 5 mg/kg)?
A: 3536 ng/mL

Q: What about the Tmax ([5]; female, po, 5 mg/kg) of the same compound?
A: 2 h

Q: What about the Vd/F ([5]; female, po, 5 mg/kg) of the same compound?
A: 0.016 L/kg

Q: And the t1/2z ([5]; female, po, 5 mg/kg)?
A: 9.1 h

Q: And the tz ([5]; female, po, 5 mg/kg)?
A: 24 h

Q: What about the “% AUCextra” value ([5]; male, iv, 1 mg/kg) of the same compound?
A: 22%

Q: What about the AUC(0-inf) ([5]; male, iv, 1 mg/kg) of the same compound?
A: 47.9 µg·h/mL

Q: What about the AUC(0-t) ([5]; male, iv, 1 mg/kg) of the same compound?
A: 42.6 µg·h/mL

Q: What about the C0 ([5]; male, iv, 1 mg/kg) of the same compound?
A: 5540 ng/mL

Q: And the Cz ([5]; male, iv, 1 mg/kg)?
A: 437 ng/mL

Q: What about the Vz/f ([5]; male, iv, 1 mg/kg) of the same compound?
A: 10 mL/kg

Q: And the t1/2z ([5]; male, iv, 1 mg/kg)?
A: 7.9 h

Q: What about the tz ([5]; male, iv, 1 mg/kg) of the same compound?
A: 24 h

Q: What about the bioavailability ([5]; male, po) of the same compound?
A: 86%

Q: What about the “% AUCextra” value ([5]; male, po, 5 mg/kg) of the same compound?
A: 24%

Q: And the AUC(0-inf) ([5]; male, po, 5 mg/kg)?
A: 210 µg·h/mL

Q: And the AUC(0-t) ([5]; male, po, 5 mg/kg)?
A: 183 µg·h/mL

Q: What about the CL/F ([5]; male, po, 5 mg/kg) of the same compound?
A: 3.82 mL/min/kg

Q: And the Cmax ([5]; male, po, 5 mg/kg)?
A: 14600 ng/mL

Q: And the Cz ([5]; male, po, 5 mg/kg)?
A: 1525 ng/mL

Q: What about the Tmax ([5]; male, po, 5 mg/kg) of the same compound?
A: 2 h

Q: What about the Vd/F ([5]; male, po, 5 mg/kg) of the same compound?
A: 0.008 L/kg

Q: What about the t1/2z ([5]; male, po, 5 mg/kg) of the same compound?
A: 6.6 h

Q: And the tz ([5]; male, po, 5 mg/kg)?
A: 24 h
